From US9999622B2, “Pyrazolothiazole compound and medicine comprising same” (NIPPON SHINYAKU CO., LTD., priority 2014, dated 2018) come the findings set out here.

A value given as a limit tells only on which side of the number the result lay.

Holding throughout (assay type): biochemical
One assay has as its target T1, JAK2 (Homo sapiens, UniProt O60674).
T1 construct: purchased Carna Biosciences, Inc
Briefly: JAK tyrosine kinase inhibitory activity in the presence of 1 mM ATP (ELISA), JAK2. The protocol:
(§1) 1. Preparation of Test Compound
(§2) The test compound was dissolved in dimethyl sulfoxide (DMSO) to 10 mM and further diluted with DMSO to the concentrations of 1000, 100, 10, 1, 0.1 and 0.01 μM, respectively. For JAK1, these solutions of the test compound at the six concentrations 10 mM, 1000 μM, 100 μM, 10 μM, 1 μM and 0.1 μM were used. For JAK2 and JAK3, these solutions of the test compound at the six concentrations 1000 μM, 100 μM, 10 μM, 1 μM, 0.1 μM and 0.01 μM were used. The test compound solutions were diluted further to 20-fold with an assay buffer to obtain a sample solution. 15 mM Tris-HCl (pH7.5), 0.01 (v/v) % Tween-20 and 1 mM dithiothreitol were used as an assay buffer. DMSO was diluted to 20-fold with the assay buffer and was used as a negative control.
(§3) 2. JAK Tyrosine Kinase Inhibitory Activity in the Presence of 1 mM Atp
(§4) The activity was determined by ELISA method. Each of the sample solutions was added to a streptavidine coated 96-well plate (DELFIA Strip Plate 8×12 well, PerkinElmer) at 10 μL/well (n=2). […] Finally, JAK tyrosine kinase (Carna Biosciences, Inc.), which was previously diluted with the assay buffer to 7.5 nM for JAK1 and 0.75 nM for JAK2 and JAK3, was added to the plate at 20 μL/well, and the plate was incubated at 30° C. for 1 h. The plate was washed four times with buffer (50 mM Tris-HCl (pH 7.5), 150 mM NaCl, 0.02 (v/v) % Tween-20). A blocking buffer (0.1% Bovine Serum Albumin, 50 mM Tris-HCl (pH 7.5), 150 mM NaCl, 0.02 (v/v) % Tween-20) was added to the plate at 150 μL/well and the plate was blocked at 30° C. for 1 h. The blocking buffer was removed, and a horse radish peroxidase-labeled anti-phosphorylated tyrosine antibody (BD Biosciences, Inc.) (diluted to 10000-fold with the blocking buffer) was added to the plate at 100 μL/well, and the plate was incubated at 30° C. for 30 min. The plate was washed with the washing buffer four times, and 3,3′,5,5′-tetramethylbenizidine solution (Nacalai Tesque) was added to the plate at 100 μL/well to develop the color for 10 minutes. To the plate was added 0.1 M sulfuric acid at 100 μL/well to stop the reaction. The absorbance at 450 nm was measured using a microplate reader (BIO-RAD).
(§5) 3. Analysis of the Results

The target in a further assay is T2, JAK3 (Homo sapiens, UniProt P52333).
T2 construct: purchased Carna Biosciences, Inc
T2 sequence (P52333 1-1124): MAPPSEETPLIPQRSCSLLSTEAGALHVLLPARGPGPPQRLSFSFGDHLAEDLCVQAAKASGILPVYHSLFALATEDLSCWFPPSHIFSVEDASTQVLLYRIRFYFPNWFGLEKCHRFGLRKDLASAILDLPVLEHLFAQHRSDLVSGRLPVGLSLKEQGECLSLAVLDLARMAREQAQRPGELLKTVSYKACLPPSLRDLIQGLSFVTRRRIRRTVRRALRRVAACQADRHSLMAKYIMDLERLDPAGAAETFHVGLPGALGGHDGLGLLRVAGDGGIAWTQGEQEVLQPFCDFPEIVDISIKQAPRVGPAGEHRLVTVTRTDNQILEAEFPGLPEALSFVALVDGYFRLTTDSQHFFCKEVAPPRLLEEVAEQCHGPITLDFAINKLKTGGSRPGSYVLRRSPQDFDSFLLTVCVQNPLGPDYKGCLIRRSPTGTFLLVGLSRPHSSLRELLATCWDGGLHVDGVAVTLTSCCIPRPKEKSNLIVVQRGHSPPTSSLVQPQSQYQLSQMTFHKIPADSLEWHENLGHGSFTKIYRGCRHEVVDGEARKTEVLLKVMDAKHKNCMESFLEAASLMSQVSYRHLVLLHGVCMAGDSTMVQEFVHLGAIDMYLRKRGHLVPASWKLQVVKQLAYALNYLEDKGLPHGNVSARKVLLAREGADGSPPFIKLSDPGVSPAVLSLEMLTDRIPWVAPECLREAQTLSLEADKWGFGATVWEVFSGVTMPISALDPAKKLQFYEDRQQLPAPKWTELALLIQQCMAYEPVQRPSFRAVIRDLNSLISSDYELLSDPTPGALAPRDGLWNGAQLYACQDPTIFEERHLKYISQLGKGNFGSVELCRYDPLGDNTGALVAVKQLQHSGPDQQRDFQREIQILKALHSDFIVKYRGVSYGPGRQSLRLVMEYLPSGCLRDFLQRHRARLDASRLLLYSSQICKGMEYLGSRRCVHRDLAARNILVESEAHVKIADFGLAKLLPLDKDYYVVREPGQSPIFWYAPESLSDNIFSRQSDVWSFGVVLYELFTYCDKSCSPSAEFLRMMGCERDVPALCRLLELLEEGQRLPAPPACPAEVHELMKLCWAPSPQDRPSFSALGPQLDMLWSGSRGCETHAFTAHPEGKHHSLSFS
The experiment in a line: JAK tyrosine kinase inhibitory activity in the presence of 1 mM ATP (ELISA), JAK3. The procedure:
as §1, §2, §3, §4, §5

A further assay concerns the target T3, JAK1 (Homo sapiens, UniProt P23458).
T3 construct: purchased Carna Biosciences, Inc
The experiment in a line: JAK tyrosine kinase inhibitory activity in the presence of 1 mM ATP (ELISA), JAK1. The protocol:
as §1, §2, §3, §4, §5

T3 sequence (P23458 whole entry): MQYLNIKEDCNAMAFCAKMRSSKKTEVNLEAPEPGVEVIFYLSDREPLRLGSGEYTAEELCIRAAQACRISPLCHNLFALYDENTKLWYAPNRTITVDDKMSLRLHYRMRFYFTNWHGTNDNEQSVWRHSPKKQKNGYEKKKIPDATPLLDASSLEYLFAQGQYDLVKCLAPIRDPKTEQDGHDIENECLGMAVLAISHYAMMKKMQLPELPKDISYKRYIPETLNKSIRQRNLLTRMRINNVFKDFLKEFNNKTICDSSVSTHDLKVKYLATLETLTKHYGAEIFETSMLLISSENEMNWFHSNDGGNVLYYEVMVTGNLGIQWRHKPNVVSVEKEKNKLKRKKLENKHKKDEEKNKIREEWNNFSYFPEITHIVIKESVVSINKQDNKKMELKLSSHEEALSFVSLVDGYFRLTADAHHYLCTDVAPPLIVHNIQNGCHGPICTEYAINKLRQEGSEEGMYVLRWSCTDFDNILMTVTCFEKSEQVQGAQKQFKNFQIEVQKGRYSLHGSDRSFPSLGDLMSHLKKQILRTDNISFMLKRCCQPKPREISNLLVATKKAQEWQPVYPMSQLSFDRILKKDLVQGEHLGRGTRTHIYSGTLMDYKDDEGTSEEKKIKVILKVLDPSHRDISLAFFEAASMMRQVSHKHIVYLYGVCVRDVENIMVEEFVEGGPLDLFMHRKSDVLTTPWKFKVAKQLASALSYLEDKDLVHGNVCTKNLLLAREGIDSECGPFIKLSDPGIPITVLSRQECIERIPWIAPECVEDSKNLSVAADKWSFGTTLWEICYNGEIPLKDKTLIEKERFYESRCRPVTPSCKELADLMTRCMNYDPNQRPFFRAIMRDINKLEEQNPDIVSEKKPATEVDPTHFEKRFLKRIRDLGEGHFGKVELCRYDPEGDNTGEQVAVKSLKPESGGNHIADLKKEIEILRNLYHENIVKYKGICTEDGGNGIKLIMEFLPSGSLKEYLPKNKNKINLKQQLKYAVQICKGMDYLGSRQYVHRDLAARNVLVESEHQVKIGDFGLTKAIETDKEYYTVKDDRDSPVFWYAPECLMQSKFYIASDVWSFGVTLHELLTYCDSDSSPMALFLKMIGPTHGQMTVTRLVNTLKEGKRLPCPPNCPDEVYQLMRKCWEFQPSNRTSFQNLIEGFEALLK
T1 sequence (O60674 whole entry): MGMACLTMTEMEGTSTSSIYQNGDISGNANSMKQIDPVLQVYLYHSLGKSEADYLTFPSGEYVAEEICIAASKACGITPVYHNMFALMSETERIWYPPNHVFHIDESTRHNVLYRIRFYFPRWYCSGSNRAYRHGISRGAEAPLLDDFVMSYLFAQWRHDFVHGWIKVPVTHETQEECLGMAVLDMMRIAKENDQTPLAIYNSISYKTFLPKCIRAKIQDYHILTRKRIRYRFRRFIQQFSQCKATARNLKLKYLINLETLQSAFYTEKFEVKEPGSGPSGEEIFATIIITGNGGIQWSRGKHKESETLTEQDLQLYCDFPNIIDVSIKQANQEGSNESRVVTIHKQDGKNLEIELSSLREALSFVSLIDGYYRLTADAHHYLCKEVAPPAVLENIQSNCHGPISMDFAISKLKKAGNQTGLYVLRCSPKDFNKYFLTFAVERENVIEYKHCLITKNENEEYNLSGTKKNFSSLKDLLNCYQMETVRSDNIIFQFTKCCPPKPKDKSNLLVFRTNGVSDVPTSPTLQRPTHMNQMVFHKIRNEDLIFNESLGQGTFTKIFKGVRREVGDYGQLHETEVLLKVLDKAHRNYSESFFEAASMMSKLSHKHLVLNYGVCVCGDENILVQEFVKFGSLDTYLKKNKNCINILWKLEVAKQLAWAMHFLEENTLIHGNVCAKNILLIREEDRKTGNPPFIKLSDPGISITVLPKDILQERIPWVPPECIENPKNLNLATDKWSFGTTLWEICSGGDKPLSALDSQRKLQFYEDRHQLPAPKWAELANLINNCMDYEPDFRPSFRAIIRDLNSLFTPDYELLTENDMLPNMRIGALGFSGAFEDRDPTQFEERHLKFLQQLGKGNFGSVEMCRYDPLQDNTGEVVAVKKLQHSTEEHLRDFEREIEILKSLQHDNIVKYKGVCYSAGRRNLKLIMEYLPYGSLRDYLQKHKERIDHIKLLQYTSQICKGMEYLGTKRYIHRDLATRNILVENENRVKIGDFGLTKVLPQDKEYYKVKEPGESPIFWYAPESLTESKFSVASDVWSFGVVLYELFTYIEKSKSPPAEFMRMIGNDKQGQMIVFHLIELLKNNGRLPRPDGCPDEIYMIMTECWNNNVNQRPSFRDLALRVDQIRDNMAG

Take `O=C(NC1CCN(C(=O)c2cc(N[C@H]3CCC[C@@H]3OC(F)F)nc(-c3cnn4ccsc34)n2)CC1)C1CC1` [Example 14, N-(1-{[6-{[(1S,2S)-2-(Difluoromethoxy)cyclopentyl]amino}-2-(pyrazolo[5,1-b][1,3]thiazol-7-yl)pyrimidin-4-yl]carbonyl}piperidin-4-yl)cyclopropanecarboxamide]: the IC50 amounted to 1700 nM at JAK2, 1500 nM on JAK3 and 69 nM at JAK1.
The corresponding values for `CC(C)(C)CNc1cc(C(=O)N2CCC(NC(=O)C3CC3)CC2)nc(-c2cnn3ccsc23)n1` [Example 15, N-[1-({6-[(2,2-Dimethylpropyl)amino]-2-(pyrazolo[5,1-b][1,3]thiazol-7-yl)pyrimidin-4-yl}carbonyl)piperidin-4-yl]cyclopropanecarboxamide] are 2500 nM, 7200 nM and 110 nM.
Consider `C[C@@H](COC(F)F)Nc1cc(C(=O)N2CCC(NC(=O)C3CC3)CC2)nc(-c2cnn3ccsc23)n1` [Example 17, N-(1-{[6-{[(2S)-1-(Difluoromethoxy)propan-2-yl]amino}-2-(pyrazolo[5,1-b][1,3]thiazol-7-yl)pyrimidin-4-yl]carbonyl}piperidin-4-yl)cyclopropanecarboxamide], for which the IC50 on JAK2 was found to be 5100 nM; on JAK3 it was 5800 nM; on JAK1 it was 230 nM.
Taken in the same sequence, the figures for `Cc1c(N[C@@H](C)C2CC2)nc(-c2cnn3ccsc23)nc1C(=O)N1CCC(NC(=O)C(F)F)CC1` [Example 18, N-(1-{[6-{[(1S)-1-Cyclopropylethyl]amino}-5-methyl-2-(pyrazolo[5,1-b][1,3]thiazol-7-yl)pyrimidin-4-yl]carbonyl}piperidin-4-yl)-2,2-difluoroacetamide] were 2300 nM, 1700 nM and 310 nM.
The corresponding values for `CO[C@H]1CCC[C@@H]1Nc1cc(C(=O)N2CCC(NC(=O)C3CC3)CC2)nc(-c2cnn3ccsc23)n1` [Example 19, N-(1-{[6-{[(1S,2S)-2-Methoxycyclopentyl]amino}-2-(pyrazolo[5,1-b][1,3]thiazol-7-yl)pyrimidin-4-yl]carbonyl}piperidin-4-yl)cyclopropanecarboxamide] are 4400 nM, 6500 nM and 710 nM.
With `CC(C)OC(=O)NC1CCN(C(=O)c2cc(N[C@H](C)C(C)(C)C)nc(-c3cnn4ccsc34)n2)CC1` [Example 29, Propan-2-yl (1-{[6-{[(2R)-3,3-dimethylbutan-2-yl]amino}-2-(pyrazolo[5,1-b][1,3]thiazol-7-yl)pyrimidin-4-yl]carbonyl}piperidin-4-yl)carbamate], the IC50 on JAK2 turned out to be 1200 nM; on JAK3 it was 3000 nM; on JAK1 it was 140 nM.
The corresponding values for `C[C@H](Nc1cc(C(=O)N2CCC(NC(=O)c3ccccc3)CC2)nc(-c2cnn3ccsc23)n1)C1CC1` [Example 30, N-(1-{[6-{[(1S)-1-Cyclopropylethyl]amino}-2-(pyrazolo[5,1-b][1,3]thiazol-7-yl)pyrimidin-4-yl]carbonyl}piperidin-4-yl)benzamide] are 1400 nM, above 10000 nM and 110 nM.
The corresponding values for `C[C@H](Nc1cc(C(=O)N2CCC(NC(=O)c3cccs3)CC2)nc(-c2cnn3ccsc23)n1)C1CC1` [Example 32, N-(1-{[6-{[(1S)-1-Cyclopropylethyl]amino}-2-(pyrazolo[5,1-b][1,3]thiazol-7-yl)pyrimidin-4-yl]carbonyl}piperidin-4-yl)thiophene-2-carboxamide] are 1800 nM, above 10000 nM and 380 nM.
Taken in the same sequence, the figures for `C[C@H](Nc1cc(C(=O)N2CCC(NC(=O)NC3CC3)CC2)nc(-c2cnn3ccsc23)n1)C1CC1` [Example 34, 1-Cyclopropyl-3-(1-{[6-{[(1S)-1-cyclopropylethyl]amino}-2-(pyrazolo[5,1-b][1,3]thiazol-7-yl)pyrimidin-4-yl]carbonyl}piperidin-4-yl)urea] were 1900 nM, 3000 nM and 350 nM.
For `C[C@@H](C1CC1)N(C)c1cc(C(=O)N2CCC(Nc3ncccn3)CC2)nc(-c2cnn3ccsc23)n1` [Example 35, [6-{[(1S)-1-Cyclopropylethyl](methyl)amino}-2-(pyrazolo[5,1-b][1,3]thiazol-7-yl)pyrimidin-4-yl][4-(pyrimidin-2-ylamino)piperidin-1-yl]methanone], the IC50 at JAK2 is 2400 nM; at JAK3 it was above 10000 nM; on JAK1, 270 nM.
Taken in the same sequence, the figures for `CC(C)(C)Nc1cc(C(=O)N2CCC(NC(=O)C3CC3)CC2)nc(-c2cnn3ccsc23)n1` [Example 36, N-(1-{[6-(tert-Butylamino)-2-(pyrazolo[5,1-b][1,3]thiazol-7-yl)pyrimidin-4-yl]carbonyl}piperidin-4-yl)cyclopropanecarboxamide] were 620 nM, above 10000 nM and 86 nM.
Take `CC1(Nc2cc(C(=O)N3CCC(NC(=O)C4CC4)CC3)nc(-c3cnn4ccsc34)n2)CC1` [Example 37, N-[1-({6-[(1-Methylcyclopropyl)amino] 2 (pyrazolo[5,1-b][1,3]thiazol-7-yl)pyrimidin-4-yl}carbonyl)piperidin-4-yl]cyclopropanecarboxamide]: the results for the IC50 at JAK2, at JAK3 and on JAK1 were 1600 nM, above 10000 nM and 240 nM, respectively.
Taken in the same sequence, the figures for `COCC(C)(C)Nc1cc(C(=O)N2CCC(NC(=O)C3CC3)CC2)nc(-c2cnn3ccsc23)n1` [Example 38, N-[1-({6-[(1-Methoxy-2-methylpropan-2-yl)amino]-2-(pyrazolo[5,1-b][1,3]thiazol-7-yl)pyrimidin-4-yl}carbonyl)piperidin-4-yl]cyclopropanecarboxamide] were 1200 nM, above 10000 nM and 260 nM.
The corresponding values for `COC(=O)NC1CCN(C(=O)c2cc(N[C@H](C)C(C)(C)C)nc(-c3cnn4ccsc34)n2)CC1` [Example 39, Methyl (1-{[6-{[(2R)-3,3-dimethylbutan-2-yl]amino}-2-(pyrazolo[5,1-b][1,3]thiazol-7-yl)pyrimidin-4-yl]carbonyl}piperidin-4-yl)carbamate] are 1300 nM, 2900 nM and 140 nM.
The corresponding values for `O=C(NC1CCN(C(=O)c2cc(OCC3CC3)nc(-c3cnn4ccsc34)n2)CC1)C1CC1` [Example 43, N-(1-{[6-(Cyclopropylmethoxy)-2-(pyrazolo[5,1-b][1,3]thiazol-7-yl)pyrimidin-4-yl]carbonyl}piperidin-4-yl)cyclopropanecarboxamide] are above 10000 nM, above 10000 nM and 130 nM.
